Measured values published in US20210018841A1, “COMPOSITION FOR RESIST UNDERLAYER FILM FORMATION AND PATTERN FORMATION METHOD” (Mitsubishi Gas Chemical Company, Inc., priority 2018, published 2021).

Test: Solubility in a safe solvent (PGMEA)
Assay type: physicochemical
Conditions: ultrasonic waves at 23° C. for 30 minutes, visually observed
Description: The solubility of an obtained compound in a safe solvent (propylene glycol monomethyl ether acetate (PGMEA)) was evaluated as follows. The compound was precisely weighed in a test tube, and PGMEA was added to a predetermined concentration. Next, ultrasonic waves were applied at 23° C. for 30 minutes with an ultrasonic cleaning machine, and the subsequent state of the liquid was visually observed. The concentration (% by mass) at which the compound was completely dissolved was defined as the amount of dissolution. […] B: amount of dissolution was 3.0% by mass or more and 5.0% by mass or less. C: amount of dissolution was less than 3.0% by mass.

For CCO[Te](OCC)(OCC)OCC [TOX-1, tetraethoxytellurium(IV)], the “Solubility of tellurium containing compound” value was “A (amount of dissolution was 5.0% by mass or more)”.
